Measurements as given in patent publication US10076519B2 (CYTOKINETICS, INC., priority 2010, dated 2018).

What follows are molecules tested on rabbit skeletal myofibrils (fast skeletal myofibrils) (assay: Activation of fast skeletal myofibrils (PUMA assay, PK/LDH-coupled ATPase at pCa25)). Details: AC1.4 determined according to the procedure of Example 39; reported as class symbols.
Assay type: biochemical
Method in brief: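 Detergent-washed rabbit psoas myofibrils (~90% fast fibres, calcium-regulated) assayed at calcium giving 25% of maximal ATPase rate (pCa25). ADP turnover coupled via pyruvate kinase/lactate dehydrogenase to NADH oxidation, read at 340 nm. Buffer 12 mM PIPES, 2 mM MgCl2, 1 mM DTT, pH 6.8; AC1.4 values derived.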

| Structure (SMILES) | Mean AC1.4 |
| --- | --- |
| CC(C)(C)OC(=O)N(CC(C)(C)c1ccc(F)cc1)c1ccc(-c2ccc3[nH]c(=O)c(=O)[nH]c3c2)nn1 [(tert-butoxy)-N-[6-(2,3-dioxo(1,4-dihydroquinoxalin-6-yl))pyridazin-3-yl]-N-[2-(4-fluorophenyl)-2-methylpropyl]carboxamide] | D (D=>20 uM) |
| CC(C)(C)OC(=O)NCc1cccc(-c2ccc(NCC(C)(C)c3ccc(F)cc3)nn2)c1 [(tert-butoxy)-N-{[3-(6-{[2-(4-fluorophenyl)-2-methylpropyl]amino}pyridazin-3-yl)phenyl]methyl}carboxamide] | B (B=1-10 uM) |
| OCC1(CNc2ccc(-c3ccc4[nH]ncc4c3)nn2)CCC1 [({[(6-(1H-indazol-5-yl)pyridazin-3-yl)amino]methyl}cyclobut-yl)methan-1-ol] | D (D=>20 uM) |
| COC(=O)c1ccc(NCC(C)(C)c2ccc(F)cc2)nn1 [Methyl 6-(2-(4-fluorophenyl)-2-methylpropylamino)pyridazine-3-carboxylate] | C (C=10-20 uM) |
| CC(C)(CNc1ccc(C(=O)NC(CCC(N)=O)C(N)=O)nn1)c1ccc(F)cc1 (stereo not drawn) [N-(1,3-dicarbamoylpropyl)(6-{[2-(4-fluorophenyl)-2-methylpropyl]amino}pyridazin-3-yl)carboxamide] | D (D=>20 uM) |
| CC(C)CC(NC(=O)c1ccc(NCC(C)(C)c2ccc(F)cc2)nn1)C(N)=O (stereo not drawn) [N-(1-carbamoyl-3-methylbutyl)(6-{[2-(4-fluorophenyl)-2-methylpropyl]amino}pyridazin-3-yl)carboxamide] | C (C=10-20 uM) |
| CC(C)(CNc1ccc(-c2cccc(C(=O)NCC(O)CO)c2)nn1)c1ccc(F)cc1 (stereo not drawn) [N-(2,3-dihydroxypropyl)[3-(6-{[2-(4-fluorophenyl)-2-methylpropyl]amino}pyridazin-3-yl)phenyl]carboxamide] | B (B=1-10 uM) |
| C=Cc1ccc(NCC(C)(C)c2ccc(F)cc2)nn1 [N-(2-(4-fluorophenyl)-2-methylpropyl)-6-vinylpyridazin-3-amine] | B (B=1-10 uM) |
| CC(C)(CNc1ccc(-c2cccc(C(=O)NCCN)c2)nn1)c1ccc(F)cc1 [N-(2-aminoethyl)[3-(6-{[2-(4-fluorophenyl)-2-methylpropyl]amino}pyridazin-3-yl)phenyl]carboxamide] | A (A=<1 uM) |
| CC(C)(CNc1ccc(C(=O)NCCC(N)=O)nn1)c1ccc(F)cc1 [N-(2-carbamoylethyl)(6-{[2-(4-fluorophenyl)-2-methylpropyl]amino}pyridazin-3-yl)carboxamide] | D (D=>20 uM) |
| CC(C)(CNc1ccc(-c2cccc(C(=O)NCCCN)c2)nn1)c1ccc(F)cc1 [N-(3-aminopropyl)[3-(6-{[2-(4-fluorophenyl)-2-methylpropyl]amino}pyridazin-3-yl)phenyl]carboxamide] | B (B=1-10 uM) |
| CC(C)(CNc1ccc(C(=O)N[C@H](Cc2ccccc2)C(N)=O)nn1)c1ccc(F)cc1 [N-((1R)-1-carbamoyl-2-phenylethyl)(6-{[2-(4-fluorophenyl)-2-methylpropyl]amino}pyridazin-3-yl)carboxamide] | C (C=10-20 uM) |
| CC(C)(CNc1ccc(C(=O)N[C@@H](CO)C(N)=O)nn1)c1ccc(F)cc1 [N-((1S)-1-carbamoyl-2-hydroxyethyl)(6-{[2-(4-fluorophenyl)-2-methylpropyl]amino}pyridazin-3-yl)carboxamide] | D (D=>20 uM) |
| CC(C)(CNc1ccc(C(=O)N[C@@H](Cc2ccccc2)C(N)=O)nn1)c1ccc(F)cc1 [N-((1S)-1-carbamoyl-2-phenylethyl)(6-{[2-(4-fluorophenyl)-2-methylpropyl]amino}pyridazin-3-yl)carboxamide] | C (C=10-20 uM) |

Same assay, conditions: median AC1.4 class, procedure of Example 39

| Structure (SMILES) | Mean AC1.4 |
| --- | --- |
| CS(=O)(=O)NCc1cnc(-c2ccc(NCC3(c4ncccc4F)CCC3)nn2)s1 [({2-[6-({[(3-fluoro(2-pyridyl))cyclobutyl]methyl}ami-no)pyridazin-3-yl](1,3-thiazol-5-yl)}methyl)(methylsulfonyl)amine] | B (B=1-10 uM) |
| O=C(NC1CCS(=O)(=O)C1)c1cnc(-c2ccc(NCC3(c4ncccc4F)CCC3)nn2)s1 (stereo not drawn) [N-(1,1-dioxothiolan-3-yl){2-[6-({[(3-fluoro(2-pyridyl))cyclobutyl]methyl}ami-no)pyridazin-3-yl](1,3-thiazol-5-yl)}carboxamide] | A (A=<1 uM) |
| O=C(NCC(F)(F)CO)c1cnc(-c2ccc(NCC3(c4ncccc4F)CCC3)nn2)s1 [N-(2,2-difluoro-3-hydroxypropyl){2-[6-({[(3-fluoro(2-pyridyl))cyclobutyl]methyl}ami-no)pyridazin-3-yl](1,3-thiazol-5-yl)}carboxamide] | A (A=<1 uM) |
| O=C(NCC(O)CO)c1cnc(-c2ccc(NCC3(c4ncccc4F)CCC3)nn2)s1 (stereo not drawn) [N-(2,3-dihydroxypropyl){2-[6-({[(3-fluoro(2-pyridyl))cyclobutyl]methyl}ami-no)pyridazin-3-yl](1,3-thiazol-5-yl)}carboxamide] | A (A=<1 uM) |
| NC(CNC(=O)c1cnc(-c2ccc(NCC3(c4ncccc4F)CCC3)nn2)s1)C(F)(F)F (stereo not drawn) [N-(2-amino-3,3,3-trifluoropropyl){2-[6-({[(3-fluoro(2-pyridyl))cyclobutyl]methyl}ami-no)pyridazin-3-yl](1,3-thiazol-5-yl)}carboxamide] | B (B=1-10 uM) |
| NCCNC(=O)c1cnc(-c2ccc(NCC3(c4ncccc4F)CCC3)nn2)s1 [N-(2-aminoethyl){2-[6-({[(3-fluoro(2-pyridyl))cyclobutyl]methyl}ami-no)pyridazin-3-yl](1,3-thiazol-5-yl)}carboxamide] | A (A=<1 uM) |
| NCC(F)(F)CNC(=O)c1cnc(-c2ccc(NCC3(c4ncccc4F)CCC3)nn2)s1 [N-(3-amino-2,2-difluoropropyl){2-[6-({[(3-fluoro(2-pyridyl))cyclobutyl]methyl}ami-no)pyridazin-3-yl](1,3-thiazol-5-yl)}carboxamide] | A (A=<1 uM) |
| CC(C)(C)[S+]([O-])NCc1cnc(-c2ccc(NCC3(c4ncccc4F)CCC3)nn2)s1 (stereo not drawn) [N-((2-(6-((1-(3-fluoropyridin-2-yl)cyclobutyl)methylamino)pyr-idazin-3-yl)thiazol-5-yl)methyl)-2-methylpropane-2-sulfinamide] | B (B=1-10 uM) |

Same assay, conditions: median AC1.4 reported as class; procedure of Example 39

| Structure (SMILES) | Mean AC1.4 |
| --- | --- |
| O=C(NC1CS(=O)(=O)C1)c1cccc(-c2ccc(NC[C@]3(c4ncccc4F)C[C@H](F)C3)nn2)c1 [N-(1,1-dioxothietan-3-yl){3-[6-({[3-fluoro-1-(3-fluoro(2-pyridyl))cyclobutyl]methyl}ami-no)pyridazin-3-yl]phenyl}carboxamide] | B (B=1-10 uM) |
| O=C(NC1CCS(=O)(=O)C1)c1cccc(-c2ccc(NC[C@]3(c4ncccc4F)C[C@H](F)C3)nn2)c1 (stereo partly drawn) [N-(1,1-dioxothiolan-3-yl){3-[6-({[3-fluoro-1-(3-fluoro(2-pyridyl))cyclobutyl]methyl}ami-no)pyridazin-3-yl]phenyl}carboxamide] | B (B=1-10 uM) |
| CC(=O)N1CC(NC(=O)c2cccc(-c3ccc(NC[C@]4(c5ncccc5F)C[C@H](F)C4)nn3)c2)C1 [N-(1-acetylazetidin-3-yl){3-[6-({[3-fluoro-1-(3-fluoro(2-pyridyl))cyclobutyl]methyl}ami-no)pyridazin-3-yl]phenyl}carboxamide] | B (B=1-10 uM) |
| CC(=O)N1CC(NC(=O)c2ccc(F)c(-c3ccc(NC[C@]4(c5ncccc5F)C[C@H](F)C4)nn3)c2)C1 [N-(1-acetylazetidin-3-yl){4-fluoro-3-[6-({[3-fluoro-1-(3-fluoro(2-pyridyl))cyclobutyl]methyl}ami-no)pyridazin-3-yl]phenyl}carboxamide] | A (A=<1 uM) |
| O=C(Nc1nnc[nH]1)c1ccc(NCC2(c3ncccc3F)CCC2)nn1 [N-(1H-1,2,4-triazol-5-yl)[6-({[(3-fluoro(2-pyridyl))cyclobutyl]methyl}ami-no)pyridazin-3-yl]carboxamide] | D (D=>20 uM) |
| O=C(NCC(F)F)c1ccc(F)c(-c2ccc(NC[C@]3(c4ncccc4F)C[C@H](F)C3)nn2)c1 [N-(2,2-difluoroethyl){4-fluoro-3-[6-({[3-fluoro-1-(3-fluoro(2-pyridyl))cyclobutyl]methyl}ami-no)pyridazin-3-yl]phenyl}carboxamide] | B (B=1-10 uM) |
| O=C(NCCF)c1ccc(F)c(-c2ccc(NC[C@]3(c4ncccc4F)C[C@H](F)C3)nn2)c1 [N-(2-fluoroethyl){4-fluoro-3-[6-({[3-fluoro-1-(3-fluoro(2-pyridyl))cyclobutyl]methyl}ami-no)pyridazin-3-yl]phenyl}carboxamide] | B (B=1-10 uM) |
| O=C(NC1CCOCC1)c1cccc(-c2ccc(NC[C@]3(c4ncccc4F)C[C@H](F)C3)nn2)c1 [N-(2H-3,4,5,6-tetrahydropyran-4-yl){3-[6-({[3-fluoro-1-(3-fluoro(2-pyridyl))cyclobutyl]methyl}ami-no)pyridazin-3-yl]phenyl}carboxamide] | B (B=1-10 uM) |
| O=C(NC1CC(F)(F)C1)c1ccc(F)c(-c2ccc(NC[C@]3(c4ncccc4F)C[C@H](F)C3)nn2)c1 [N-(3,3-difluorocyclobutyl){4-fluoro-3-[6-({[3-fluoro-1-(3-fluoro(2-pyridyl))cyclobutyl]methyl}ami-no)pyridazin-3-yl]phenyl}carboxamide] | A (A=<1 uM) |
| N#Cc1nc[nH]c1NC(=O)c1ccc(NCC2(c3ncccc3F)CCC2)nn1 [N-(4-cyanoimidazol-5-yl)[6-({[(3-fluoro(2-pyridyl))cyclobutyl]methyl}ami-no)pyridazin-3-yl]carboxamide] | C (C=10-20 uM) |
| N#Cc1cn[nH]c1NC(=O)c1ccc(NCC2(c3ncccc3F)CCC2)nn1 [N-(4-cyanopyrazol-5-yl)[6-({[(3-fluoro(2-pyridyl))cyclobutyl]methyl}ami-no)pyridazin-3-yl]carboxamide] | B (B=1-10 uM) |
